Laboratory results reported in ChEMBL document CHEMBL5512623, “Discovery of the novel and potent histamine H1 receptor antagonists for treatment of allergic diseases” (Eur J Med Chem, 2024).

Key:
[1] = Subacute toxicity in Sprague-Dawley rat assessed as ptosis at 140 mg/kg, IG administered once a day for 14 days; format: organism-based; conditions: in vivo, po, 336 h, time 14 day
[2] = Apparent permeability across basolateral to apical side in human Caco-2 cells at 5 uM measured at 60 mins; format: ADME, cell-based
[3] = Subacute toxicity in Sprague-Dawley rat assessed as effect on neutrophil count at 140 mg/kg, IG administered once a day for 14 days; format: organism-based; conditions: in vivo, po, 336 h, time 14 day
[4] = Plasma protein binding in human assessed as binding rate at 1000 ng/ml prewarmed for 30 mins by LC-MS/MS analysis; format: ADME, cell-free; conditions: read-out: PPB (converted)
[5] = AUC (0 to infinity) in male Sprague-Dawley rat at 25 mg/kg, po measured upto 24 hrs by LC-MS/MS analysis; format: ADME, organism-based; conditions: in vivo
[6] = Acute toxicity in Sprague-Dawley rat assessed as weight loss at 700 mg/kg, IG measured for 7 days; format: organism-based; conditions: in vivo, po, 168 h, time 7 day
[7] = Plasma protein binding in human assessed as binding rate at 250 ng/ml prewarmed for 30 mins by LC-MS/MS analysis; format: ADME, cell-free; conditions: read-out: PPB (converted)
[8] = Subacute toxicity in Sprague-Dawley rat assessed as lethargy at 140 mg/kg, IG administered once a day for 14 days; format: organism-based; conditions: in vivo, po, 336 h, time 14 day
[9] = Cmax in female Sprague-Dawley rat brain at 10 mg/kg, IG administered as single dose; format: ADME, organism-based; conditions: po
[10] = Volume of distribution in male Sprague-Dawley rat at 25 mg/kg, po measured upto 24 hrs by LC-MS/MS analysis; format: ADME, organism-based; conditions: in vivo
[11] = Volume of distribution in male Sprague-Dawley rat at 4 mg/kg, iv administered via tail vein and measured upto 24 hrs by LC-MS/MS analysis; format: ADME, organism-based; conditions: in vivo
[12] = biological target: T1, Cytochrome P450 1A2 (Mus musculus, UniProt P00186); assay: Inhibition of mouse CYP1A2 at 0.01 to 50 uM measured after 30 mins by LC-MS/MS analysis; format: ADME; conditions: 0.5 h, dose 0.01-50 µM
T1 sequence (P00186 whole entry): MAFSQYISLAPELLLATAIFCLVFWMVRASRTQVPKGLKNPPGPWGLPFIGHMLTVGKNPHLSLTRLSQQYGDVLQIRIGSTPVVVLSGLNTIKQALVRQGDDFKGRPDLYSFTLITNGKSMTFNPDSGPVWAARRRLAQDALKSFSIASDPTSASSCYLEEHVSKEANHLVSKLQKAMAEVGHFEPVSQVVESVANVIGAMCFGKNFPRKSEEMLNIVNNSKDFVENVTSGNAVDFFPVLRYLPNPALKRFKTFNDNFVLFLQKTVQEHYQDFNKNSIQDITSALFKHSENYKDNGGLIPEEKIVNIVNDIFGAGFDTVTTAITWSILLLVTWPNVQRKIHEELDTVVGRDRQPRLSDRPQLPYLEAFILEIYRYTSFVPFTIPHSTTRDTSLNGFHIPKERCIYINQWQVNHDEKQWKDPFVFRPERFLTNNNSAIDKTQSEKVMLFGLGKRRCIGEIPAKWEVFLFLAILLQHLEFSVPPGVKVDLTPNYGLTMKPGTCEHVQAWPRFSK

[13] = Cmax in male Sprague-Dawley rat at 25 mg/kg, po measured upto 24 hrs by LC-MS/MS analysis; format: ADME, organism-based; conditions: in vivo
[14] = Subacute toxicity in Sprague-Dawley rat assessed as effect on ECG at 140 mg/kg, IG administered once a day for 14 days; format: organism-based; conditions: in vivo, po, 336 h, time 14 day
[15] = Subacute toxicity in Sprague-Dawley rat assessed as wheezing at 140 mg/kg, IG administered once a day for 14 days; format: organism-based; conditions: in vivo, po, 336 h, time 14 day
[16] = Subacute toxicity in Sprague-Dawley rat assessed as abnormal symptoms at 50 mg/kg, IG administered once a day for 14 days; format: organism-based; conditions: in vivo, po, 336 h, time 14 day
[17] = Subacute toxicity in Sprague-Dawley rat assessed as effect on lymphocyte count at 140 mg/kg, IG administered once a day for 14 days; format: organism-based; conditions: in vivo, po, 336 h, time 14 day
[18] = Cmax in male Sprague-Dawley rat brain at 10 mg/kg, IG administered as single dose; format: ADME, organism-based; conditions: po
[19] = AUC (0 to t) in male Sprague-Dawley rat at 25 mg/kg, po measured upto 24 hrs by LC-MS/MS analysis; format: ADME, organism-based; conditions: in vivo
[20] = Plasma protein binding in human assessed as binding rate at 1200 ng/ml prewarmed for 30 mins by LC-MS/MS analysis; format: ADME, cell-free; conditions: read-out: PPB (converted)
[21] = Subacute toxicity in Sprague-Dawley rat assessed as organ abnormalities at 50 mg/kg, IG administered once a day for 14 days; format: organism-based; conditions: in vivo, po, 336 h, time 14 day
[22] = Plasma protein binding in rat assessed as binding rate at 500 ng/ml prewarmed for 30 mins by LC-MS/MS analysis; format: ADME, cell-free; conditions: read-out: PPB (converted)
[23] = Clearance in male Sprague-Dawley rat at 25 mg/kg, po measured upto 24 hrs by LC-MS/MS analysis; format: ADME, organism-based; conditions: in vivo
[24] = Plasma protein binding in rat assessed as binding rate at 250 ng/ml prewarmed for 30 mins by LC-MS/MS analysis; format: ADME, cell-free; conditions: read-out: PPB (converted)
[25] = Subacute toxicity in Sprague-Dawley rat assessed as animal death at 50 to 140 mg/kg, IG administered once a day for 14 days; format: organism-based; conditions: in vivo, po, 336 h, dose 50-140 mg/kg, time 14 day
[26] = MRT (0 to infinity) in male Sprague-Dawley rat at 4 mg/kg, iv administered via tail vein and measured upto 24 hrs by LC-MS/MS analysis; format: ADME, organism-based; conditions: in vivo
[27] = Tmax in male Sprague-Dawley rat at 25 mg/kg, po measured upto 24 hrs by LC-MS/MS analysis; format: ADME, organism-based; conditions: in vivo
[28] = AUC (0 to t) in male Sprague-Dawley rat at 4 mg/kg, iv administered via tail vein and measured upto 24 hrs by LC-MS/MS analysis; format: ADME, organism-based; conditions: in vivo
[29] = biological target: Voltage-gated inwardly rectifying potassium channel KCNH2 (Homo sapiens, UniProt Q12809); assay: Inhibition of hERG in HEK293 cells measured after 5 mins by patch-clamp assay
[30] = Ratio of Cmax in female Sprague-Dawley rat brain to plasma at 10 mg/kg, IG administered as single dose; format: ADME, organism-based; conditions: brain and plasma, po, read-out: BPR
[31] = Subacute toxicity in Sprague-Dawley rat assessed as effect on white blood cell count at 140 mg/kg, IG administered once a day for 14 days; format: organism-based; conditions: in vivo, po, 336 h, time 14 day
[32] = Apparent permeability across apical to basolateral side in human Caco-2 cells at 5 uM measured at 60 mins; format: ADME, cell-based
[33] = Metabolic stability in mouse liver microsomes assessed as half life at 1 uM measured upto 120 mins by LC-MS/MS analysis; format: ADME, Microsome
[34] = MRT (0 to infinity) in male Sprague-Dawley rat at 25 mg/kg, po measured upto 24 hrs by LC-MS/MS analysis; format: ADME, organism-based; conditions: in vivo
[35] = Acute toxicity in Sprague-Dawley rat assessed as lethargy at 700 mg/kg, IG measured for 7 days; format: organism-based; conditions: in vivo, po, 168 h, time 7 day
[36] = Plasma protein binding in rat assessed as binding rate at 1000 ng/ml prewarmed for 30 mins by LC-MS/MS analysis; format: ADME, cell-free; conditions: read-out: PPB (converted)
[37] = Cmax in male Sprague-Dawley rat plasma at 10 mg/kg, IG administered as single dose; format: ADME, organism-based; conditions: po

Sequence of Voltage-gated inwardly rectifying potassium channel KCNH2 (Q12809 whole entry): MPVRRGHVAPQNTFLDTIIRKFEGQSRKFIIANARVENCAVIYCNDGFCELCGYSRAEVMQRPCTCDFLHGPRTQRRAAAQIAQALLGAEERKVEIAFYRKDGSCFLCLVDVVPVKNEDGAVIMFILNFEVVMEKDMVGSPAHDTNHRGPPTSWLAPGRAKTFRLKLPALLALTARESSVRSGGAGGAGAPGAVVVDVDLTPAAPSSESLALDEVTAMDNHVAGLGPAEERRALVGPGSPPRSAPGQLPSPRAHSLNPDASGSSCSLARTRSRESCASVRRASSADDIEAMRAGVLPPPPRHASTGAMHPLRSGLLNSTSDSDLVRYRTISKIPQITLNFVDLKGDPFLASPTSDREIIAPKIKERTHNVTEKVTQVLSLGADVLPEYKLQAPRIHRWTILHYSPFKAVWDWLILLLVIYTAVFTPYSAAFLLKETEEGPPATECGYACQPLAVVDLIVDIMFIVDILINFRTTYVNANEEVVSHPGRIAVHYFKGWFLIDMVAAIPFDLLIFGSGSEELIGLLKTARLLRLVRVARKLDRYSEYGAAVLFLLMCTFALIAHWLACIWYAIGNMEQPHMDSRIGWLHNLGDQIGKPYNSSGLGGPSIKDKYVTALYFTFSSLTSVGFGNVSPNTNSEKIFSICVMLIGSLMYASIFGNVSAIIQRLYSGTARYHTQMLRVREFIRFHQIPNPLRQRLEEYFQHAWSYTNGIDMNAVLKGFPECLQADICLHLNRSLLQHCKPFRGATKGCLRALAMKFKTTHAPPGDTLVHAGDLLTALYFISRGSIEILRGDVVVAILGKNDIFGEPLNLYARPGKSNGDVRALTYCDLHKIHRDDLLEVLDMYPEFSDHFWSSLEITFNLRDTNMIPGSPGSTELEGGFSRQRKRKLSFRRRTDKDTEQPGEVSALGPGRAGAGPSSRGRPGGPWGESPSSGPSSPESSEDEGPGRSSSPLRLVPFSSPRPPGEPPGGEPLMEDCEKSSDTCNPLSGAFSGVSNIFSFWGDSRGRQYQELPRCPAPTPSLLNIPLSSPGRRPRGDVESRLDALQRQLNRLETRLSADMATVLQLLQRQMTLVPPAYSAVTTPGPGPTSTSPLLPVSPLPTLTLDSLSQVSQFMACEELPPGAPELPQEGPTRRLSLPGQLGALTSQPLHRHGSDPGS

CC(C)(C(=O)O)c1cccc(CCCN2CCC(=C3c4ccc(Cl)cc4CCc4cccnc43)CC2)c1
Activity [1]: Toxic
Papp B→A at 1 h, 5 µM [2]: 6.06 ×10⁻⁶ cm/s
Activity [3]: Non-Toxic
fraction unbound at 0.5 h, 1000 ng/ml [4]: 0.321
AUC(0-inf) [5]: 7210 ng·h/mL
Activity [6]: Toxic
fraction unbound at 0.5 h, 250 ng/ml [7]: 0.347
Activity [8]: Toxic
Cmax [9]: 126 ng/g
Vd [10]: 21.26 L/kg
Vd [11]: 1.77 L/kg
inhibition (INH) [12]: Not Active
Cmax [13]: 1720 ng/mL
Activity [14]: Non-Toxic
Activity [15]: Toxic
Activity [16]: Non-Toxic
Activity [17]: Non-Toxic
Cmax [18]: 15.8 ng/g
AUC(0-t) at 24 h [19]: 6250 ng·h/mL
fraction unbound at 0.5 h, 1200 ng/ml [20]: 0.284
Activity [21]: Non-Toxic
fraction unbound at 0.5 h, 500 ng/ml [22]: 0.34
CL/F [23]: 59.4 mL/min/kg
fraction unbound at 0.5 h, 250 ng/ml [24]: 0.346
Activity [25]: Non-Toxic
MRT inf [26]: 0.7 h
Tmax [27]: 0.38 h
AUC(0-t) at 24 h [28]: 1680 ng·h/mL
IC50 [29]: 17.6 µM
Kp [30]: 0.066
Activity [31]: Non-Toxic
Papp A→B at 1 h, 5 µM [32]: 5.82 ×10⁻⁶ cm/s
half-life at 1 µM [33]: 1.44 h
MRT inf [34]: 6.01 h
Activity [35]: Toxic
fraction unbound at 0.5 h, 1000 ng/ml [36]: 0.327
Cmax [37]: 239 ng/g
